# How the values were obtained:
# Test in all cases: ≥ marks a high value that may be exact or a test limit, other limits are often not marked, values filed in µg/mL are converted to µM
# [1] = tested on: Acinetobacter baumannii CCARM 12035
# [2] = tested on: Bacillus subtilis KCTC 3068
# [3] = tested on: Staphylococcus aureus KCTC 1621
# [4] = tested on: Staphylococcus aureus CCARM 3108
# [5] = tested on: Acinetobacter baumannii CCARM 12036
# [6] = tested on: Staphylococcus aureus CCARM 3126
# [7] = tested on: Escherichia coli KCTC 1682
# [8] = tested on: Salmonella typhimurium CCARM 8007
# [9] = tested on: Escherichia coli CCARM 1238
# [10] = tested on: Pseudomonas aeruginosa CCARM 2095
# [11] = tested on: Escherichia coli CCARM 1229
# [12] = tested on: Pseudomonas aeruginosa KCTC 1637
# [13] = tested on: Staphylococcus aureus CCARM 3089
# [14] = tested on: Salmonella typhimurium CCARM 8003
# [15] = tested on: Enterococcus faecalis KCTC 2011
# [16] = tested on: Pseudomonas aeruginosa CCARM 2002
# [17] = tested on: Pseudomonas aeruginosa CCARM 2163
# [18] = tested on: Salmonella typhimurium CCARM 8009
# [19] = tested on: Acinetobacter baumannii CCARM 12037
# [20] = tested on: Acinetobacter baumannii CCARM 12005
# [21] = tested on: Salmonella typhimurium KCTC 1926
# [22] = tested on: Klebsiella pneumoniae NCTC 13368
# [23] = tested on: Escherichia coli ATCC 700928
# [24] = tested on: Staphylococcus aureus USA 300
# [25] = tested on: Escherichia coli NCTC 12923
# [26] = tested on: Acinetobacter baumannii ATCC 17978
# [27] = tested on: Pseudomonas aeruginosa PAO1
# [28] = tested on: Candida albicans ATCC 90028
# [29] = tested on: Bacillus subtilis ATCC 13933
# [30] = tested on: Staphylococcus aureus ATCC 9144
structure (smiles),measurement,setting,value
CC[C@H](C)[C@H](NC(=O)[C@H](CCCCN)NC(=O)[C@H](Cc1c[nH]c2ccccc12)NC(=O)[C@@H](N)CCCN=C(N)N)C(=O)N[C@@H](Cc1ccccc1)C(=O)N[C@@H](CCCCN)C(=O)N[C@@H](CCCCN)C(=O)N[C@H](C(=O)N1CCC[C@H]1C(=O)N[C@@H](CCCCN)C(=O)N[C@@H](Cc1ccccc1)C(=O)N[C@@H](CC(C)C)C(=O)N[C@@H](Cc1cnc[nH]1)C(=O)N[C@@H](CO)C(=O)N[C@@H](C)C(=O)N[C@@H](CCCCN)C(=O)N[C@@H](CCCCN)C(=O)N[C@@H](Cc1ccccc1)C(N)=O)[C@@H](C)CC [RWKIFKKIPKFLHSAKKF],MIC,[1],2 µM
same,MIC,[2],4 µM
same,MIC,[3],4 µM
same,MIC,[4],4 µM
same,MIC,[5],2 µM
same,MIC,[6],8 µM
same,MIC,[7],2 µM
same,MIC,[8],2 µM
same,MIC,[9],2 µM
same,MIC,[10],2 µM
same,MIC,[11],4 µM
same,MIC,[12],4 µM
same,MIC,[13],8 µM
same,MIC,[14],4 µM
same,MIC,[15],16 µM
same,MIC,[16],2 µM
same,MIC,[17],2 µM
same,MIC,[18],2 µM
same,MIC,[19],2 µM
same,MIC,[20],2 µM
same,MIC,[21],2 µM
CC[C@H](C)[C@H](NC(=O)CNC(=O)[C@@H](N)CCCCN)C(=O)N[C@@H](CCCN=C(N)N)C(=O)NCC(=O)N[C@@H](Cc1ccc(O)cc1)C(=O)N[C@@H](CCCCN)C(=O)NCC(=O)NCC(=O)N[C@@H](Cc1ccc(O)cc1)C(=O)N[C@@H](CCCCN)C(=O)NCC(=O)N[C@@H](C)C(=O)N[C@@H](Cc1ccccc1)C(=O)N[C@@H](CCCCN)C(=O)N[C@@H](CCC(N)=O)C(=O)N[C@H](C(=O)N[C@@H](CCCCN)C(=O)N[C@@H](Cc1ccc(O)cc1)C(=O)O)[C@@H](C)O [KGIRGYKGGYKGAFKQTKY],MIC,[22],≥ 59.5 µM
same,MIC,[23],≥ 55.8 µM
same,MIC,[24],≥ 59.5 µM
same,MIC,[25],≥ 59.5 µM
same,MIC,[26],≥ 59.5 µM
same,MIC,[27],> 59.5 µM
same,MIC,[28],2.2 µM
same,MIC,[29],≥ 55.8 µM
same,MIC,[30],≥ 59.5 µM

# Source: DBAASP
